In one test the test system is HSF (skin fibroblast). The test is described as follows: Proliferation assay (CellTiter 96), HSF cells. The test is classed as cell-based, human. Conditions: Homo sapiens, Skin fibroblast, pH 6.5, 44 h, cis-UCA 10 mM, CPT 2 μM, 15,000 cells per 100 μl, read-out: Inhibition of proliferation (mean percentage inhibition ± SD compared with untreated control). The text has this:
(§1) Transformed tumour cell lines WM 266-4 and A2058 (cutaneous melanoma), HT-1080 (epithelial fibrosarcoma), HeLa (epithelial adenocarcinoma of cervix), HK293 (kidney epithelial cells) and non-transformed cell line HSF (skin fibroblast from a healthy volunteer donor) of human origin have been described earlier (Li et al. 2003). The K562 (chronic myelogenous leukemia) cells were purchased from American Type Culture Collection.
(§2) The cells were maintained in logarithmic growth phase in IMDM medium (Invitrogen, Paisley, UK) supplemented with 10% fetal calf serum and antibiotics in a humidified incubator at +37° C., 5% CO2. The adherent cells lines were harvested for experiments with 0.25% trypsin-EDTA in PBS for 5 min and then resuspended and washed in medium. After counting of viable cells, 15,000 to 75,000 cells were transferred into flat-bottom 96-well cell culture plates in a volume of 100 or 150 μl.
(§3) The proliferation activity of cultured cell lines was quantified in flat-bottom 96-well plates with a modified colorimetric assay based on a tetrazolium derivative (CellTiter 96 Aqueous One Solution Cell Proliferation Assay, Promega). The cells were cultured in the presence of camptothecin and/or cis-UCA for 20 to 92 h, then the proliferation reagent was added for 2 h, and the absorbance at 490 nm was measured in a plate reader. […]

For test [1], the system named is WM 266-4 (cutaneous melanoma). Description: Proliferation assay (CellTiter 96), WM266-4 cells. It is filed as cell-based, human. Conditions: Homo sapiens, WM 266-4, pH 6.5, 44 h, cis-UCA 10 mM, CPT 2 μM, 15,000 cells per 100 μl, read-out: Inhibition of proliferation (mean percentage inhibition ± SD compared with untreated control). The method, then:
(§4) The cells were cultured in triplicate with or without 2 μM camptothecin (CPT) or 10 mM cis-UCA in a density of 15,000 cells per […]. A, Cells taken from normal pH 7.4 cultures to test conditions at pH 6.5. B, Cells cultured in low pH 6.7 adaptation medium for 3 d, then tested at pH 6.5. C, Cells cultured and tested at pH 7.4.
as §1, §2
(§5) The proliferation activity of cultured cell lines was quantified in flat-bottom 96-well plates with a modified colorimetric assay based on a tetrazolium derivative (CellTiter 96 Aqueous One Solution Cell Proliferation Assay, Promega). The cells were cultured in the presence of camptothecin and/or cis-UCA for 20 to 92 h, then the proliferation reagent was added for 2 h, and the absorbance at 490 nm was measured in a plate reader. Blank absorption values in wells containing medium without cells were subtracted before comparison analysis.
(§6) The cell lines were tested in a 44-h culture at pH 6.5 with or without 2 μM camptothecin and 10 mM cis-UCA at 15,000 cells per 100 μl total volume. […] In order to further characterise the effective anti-proliferative concentration range of cis-UCA, proliferation was measured in a 44-h assay at pH 6.5 with cis-UCA concentration ranging from 30 μM to 30 mM.

Test [2] relates to A2058 (cutaneous melanoma). The test is described as follows: Proliferation assay (CellTiter 96), A2058 cells. It is filed as cell-based, human. The settings on record: Homo sapiens, pH 6.5, 44 h, cis-UCA 10 mM, CPT 2 μM, 15,000 cells per 100 μl, read-out: Inhibition of proliferation (mean percentage inhibition ± SD compared with untreated control). The method, then: as §4
Proliferation was measured in a 44-h assay at pH 6.5 with 30 μM to 30 mM cis-UCA and 2 μM camptothecin. Both proliferation (A) and calculated percentage inhibition data (B) are presented.
as §1, §2, §5, §6

In test [3] the test system is HK293 (kidney epithelial cells). Description: Proliferation assay (CellTiter 96), HK293 cells. It is filed as cell-based, human. Conditions: Homo sapiens, Epithelial cell, pH 6.5, 44 h, cis-UCA 10 mM, CPT 2 μM, 15,000 cells per 100 μl, read-out: Inhibition of proliferation (mean percentage inhibition ± SD compared with untreated control).
Text: as §1, §2, §3

Test [4] deals with HeLa (epithelial adenocarcinoma of cervix). Description: Proliferation assay (CellTiter 96), HeLa cells. The test is classed as cell-based, human. Conditions: Homo sapiens, pH 6.5, 44 h, cis-UCA 10 mM, CPT 2 μM, 15,000 cells per 100 μl, read-out: Inhibition of proliferation (mean percentage inhibition ± SD compared with untreated control).
Text: as §1, §2, §3

Test [5] has as its system K562 (chronic myelogenous leukemia). The test is described as follows: Proliferation assay (CellTiter 96), K562 cells. The settings on record: Homo sapiens, pH 6.5, 44 h, cis-UCA 10 mM, CPT 2 μM, 15,000 cells per 100 μl, read-out: Inhibition of proliferation (mean percentage inhibition ± SD compared with untreated control). It is filed as cell-based, human.
Text: as §1, §2, §3

Test [6] deals with HT-1080 (epithelial fibrosarcoma). The test is described as follows: Proliferation assay (CellTiter 96), HT-1080 cells. It is filed as cell-based, human. The settings on record: Homo sapiens, pH 6.5, 44 h, cis-UCA 10 mM, CPT 2 μM, 15,000 cells per 100 μl, read-out: Inhibition of proliferation (mean percentage inhibition ± SD compared with untreated control).
Text: as §1, §2, §3

Another test has as its system cell lines. Description: Proliferation assay, statements on the cell lines as a group. Conditions: camptothecin 2 μM; 44 h; pH 6.5 or 7.4 (FIG. 1). It is filed as cell-based, human. The method, then:
The cells were cultured for 44 h with or without 2 μM camptothecin (CPT) at pH 6.5 or 7.4 conditions. After a 2-h incubation with the proliferation assay reagent, the absorbance at 490 nm was recorded. Cells were cultured in a density of 15,000 cells (K562, HT-1080, HK293) or 75,000 cells (the other cells) in a volume of 150 μl.
Three cell lines were cultured with cis-UCA and/or 1 μM camptothecin at a density of […] per well (100 μl) for 44 h in pH 6.5 medium. Blank wells with all the cis-UCA concentrations but without cells were included and their absorbance subtracted from those of the corresponding test wells.
Transformed tumour cell lines WM 266-4 and A2058 (cutaneous melanoma), HT-1080 (epithelial fibrosarcoma), HeLa (epithelial adenocarcinoma of cervix), HK293 (kidney epithelial cells) and non-transformed cell line HSF (skin fibroblast from a healthy volunteer donor) of human origin have been described earlier (Li et al. 2003). […]
as §3

The test system of test [7] is A2058 human cutaneous melanoma tumours. The test is described as follows: Tumour growth in SCID/SCID mice in vivo. Conditions: 16-day treatment, 1 μM CPT, pH 6.5. As to the method: All injection solutions were adjusted to pH 6.5. The data points have been normalised to unity tumour size at day 0. Data from five mice in each group is included (mean, SD).
The A2058 human cutaneous melanoma cells were cultured under normal cell culture conditions prior to injection into mice. Two million A2058 cells were injected s.c. into the neck of SCID/SCID mice (Charles River Laboratories, Germany). Tumours were allowed to develop for two weeks to the size of a small pearl before the treatments. The mice were divided into four groups of six animals, each containing three males and three females. Each tumour was first injected 50 μl of one of the test solutions (A: PBS; B: 30 mM cis-UCA; C: 1 μM CPT; D: 30 mM cis-UCA+1 μM CPT) three times a week (Mon-Wed-Fri). After day 7 from the beginning of injections, the injection volume was increased to 150 μl injected into three different sides of the tumour. Tumour length and width were measured with a caliper three times a week before each injection. Tumour planar area was calculated as length×width. The tumour growth inhibition efficiency I of the treatments was calculated according to Equation 1:
[formula] where Sr represents the normalised relative size of the tumour in the control group (A) or any of the treatment groups (T), and d0 to d16 are the (eight) measuring time points during the 16-day treatment period.
(§7) After 16 days from the first injection, all the animals were sacrificed with CO2, and the tumours were collected and fixed in formalin for further studies. In groups A, C, and D, one mouse was sacrificed before the end of the experiment because of poor development of the tumour (no measurable tumour at day 0). One animal in group B was sacrificed prematurely after it had severly scratched the tumour. Data from these animals were not included in the calculation of the tumour size results. All the removed animals were female mice. Immunohistochemical data was obtained also from the removed mice except from group B. The experiments were conducted under a protocol approved by the local ethics committee.

Test [8] concerns Ki67 (proliferating cells) in A2058 tumours. Description: Immunohistochemistry of tumours, Ki67 staining. Conditions: tumours collected after 16 days; 30 mM cis-UCA, 1 μM CPT intratumoural. It is filed as in vivo, SCID/SCID mice.
Text: as §7
(§8) Paraffin sections of the tumours were stained with haematoxylin/eosin following standard procedures for an overall picture. Ki67 was stained to detect the amount of proliferating cells. The staining procedure for the Ki67 primary antibody (Dako, Klostrup, Denmark) at 1:50 dilution and secondary antibody (StreptABComplex/HRP Duet Mouse/Rabbit, Dako) at 1:100 dilution followed the instructions provided by the manufacturer. Two sections from each tumour was examined.

In another test the test system is A2058 tumours. Description: Haematoxylin/eosin staining of tumour sections (necrosis). Conditions: tumours collected after 16 days; 30 mM cis-UCA, 1 μM CPT intratumoural. The test is classed as in vivo, SCID/SCID mice.
Text: as §7, §8

Test [9] relates to human polymorphonuclear neutrophils. Conditions: extracellular pH range 6.1 to 7.0; patent application US2006035973; cited from earlier work.

Each structure is given as a SMILES string. “And” between values parts separate entries of the source, which are not always exact repeats. Identical values can stand only once.

For the compound `CC[C@@]1(O)C(=O)OCc2c1cc1n(c2=O)Cc2cc3ccccc3nc2-1` [CPT, Camptothecin, reference compound], the inhibition at 2 µM in the test on HSF (skin fibroblast) stood at 37 ± 0.4%; in test [1], 81 ± 1.1%; in test [2], 84 ± 3.3%; in test [3], 56 ± 1%; in test [4], 78 ± 1.6%; in test [5] it was 77 ± 3.3%. For the same compound, the inhibition at 2 µM in test [6] amounted to 71 ± 1.7%. In addition, the “anti-proliferative effect in all cell line cultures” value with cell lines is “inhibited the proliferation in all cell line cultures and showed more efficient inhibition at pH 6.5”. The “mean tumour area relative to the initial size at day 0” value in test [7] (intratumoural injection three times a week, 30 mM cis-UCA) is given as “about four”. The “Growth suppression, female” value in test [7] (female mice, intratumoural 30 mM cis-UCA) is on record as 90.3%. Besides, the “Growth suppression, male” value in test [7] (male mice, intratumoural 30 mM cis-UCA) turned out to be 44.7%. In addition, in [8], the “Ki67+ (number of positive tumours/total analysed)” value was “three out of six tumours and 3/6”. The “Necrosis (histological sections with haematoxylin/eosin staining)” value in the test on A2058 tumours is “Dead cells and large necrotic areas were detected and yes”.
For `O=C(O)C=Cc1c[nH]cn1` [trans-UCA, 3-(1H-imidazol-4-yl)-2-propenoic acid, reference compound], in test [9], the “effect on the intracellular pH of neutrophils” value was “not trans-UCA affected the intracellular pH”.

The values above are taken from patent US8338475B2, “Anti-proliferative pharmaceutical composition” (BioCis Pharma Oy, priority 2003, dated 2012).
